The values that follow are results of earlier work, collected in US20250295106A1, “HERBICIDAL COMPOSITION” (NOURYON CHEMICALS INTERNATIONAL B.V., priority 2024, published 2025).

For this data set the following is noted: acid form, at 25° C.

Turning to `O=C(O)CNCP(=O)(O)O` [glyphosate, N-phosphonomethylglycine], the solubility in water is listed as 1.16 % by weight.
